Test results as given in patent US5948791A, “Quinoline derivatives for treating malaria” (Hoffmann-La Roche Inc., priority 1995, dated 1999).
Values after ≈ are worked out from the molar mass of the structure shown. Structures can show the parent of a compound that is named as a salt. Where two headings read alike, the source gives them in different places.

Experiments:
[1] = test system: Plasmodium falciparum strain NF54; assay: Growth inhibition of Plasmodium falciparum NF54 (chloroquine-sensitive) in vitro, [G-3H]-hypoxanthin incorporation; type: cell-based; settings: chloroquine-sensitive strain NF54, 72 h, read-out: IC50 for P. falciparum NF54
From the text: (§1) The ratio of the growth inhibition of a strain which is especially resistant to chloroquine and of a strain which is sensitive to chloroquine gives as the "resistance index" a measurement for the absence of a cross-resistance with chloroquine. Since, for all novel compounds the resistance index lies between 0.7 and 2.5, they inhibit the growth of sensitive as well as resistant strains of the malaria pathogen equally effectively. They are accordingly also suitable for the prophylaxis of a malaria disease and also for the treatment of a malaria disease even when chloroquine is ineffective. The good activity against malaria pathogens is also shown in animal experiments. The effective doses measured after oral and subcutaneous administration to mice infected with malaria pathogens are shown in Table 2 hereinafter.
(§2) Test method for the determination of the activity against Plasmodium falciparum in vitro
(§3) The preparations are tested on intraerythrocytary stages of Plasmodium falciparum from asynchronous cultures according to the method of Desjardin et al. (Desjardins, R. E. et al: Quantitative assessment of antimalarial activity in vitro by a semiautomated microdilution technique. Antimicrob. Agents Chemother. 16, 710-718, (1979)).
(§4) The culture medium consists of RPMI 1640 with the addition of 25 mM HEPES, 25 mM NaHCO3, 100 μg/ml neomycin and […] (A^+). Human-A^+ erythrocytes are used as the Plasmodium falciparum host cells. The parasites are maintained at 37° C. in an atmosphere of 3% O2, 4% CO2, 93% N2 and 95% relative humidity.
(§5) In order to determine the activity, the preparations are dissolved in DMSO, pre-diluted in the culture medium to a suitable starting concentration and subsequently titrated-out on to microtitre plates in the 2nd stage over 6-7 steps. After the addition of the parasite culture (0.7% parasitemia in 2.5% erythrocyte suspension) the test plates are incubated under the conditions given above for 72 h. The parasite growth in the different preparation concentrations is determined using [G-^3 H]-hypoxanthin incorporation compared to untreated control cultures on the same test plates. The 50% growth inhibition (IC50) is calculated according to logit regression analysis from the resulting dosage-activity curve.
(§6) The preparations are tested on at least one chloroquine-resistant and one chloroquine-sensitive Plasmodium falciparum strain. Additional sensitive and resistant strains are included for further characterization.

Plasmodium falciparum K1 = assay: Growth inhibition of Plasmodium falciparum K1 (chloroquine-resistant) in vitro, [G-3H]-hypoxanthin incorporation; type: cell-based, Plasmodium falciparum (strain K1); settings: for IC50: Plasmodium falciparum, K1, 72 h, read-out: IC50 for P. falciparum K1; for Resistance index: ratio of the IC50 for K1 and the IC50 for NF54
From the text: as §1, §2, §3, §4, §5, §6

Plasmodium berghei = assay: animal or person; type: in vivo, Plasmodium berghei (strain ANKA) in mice; settings: Plasmodium berghei, mice, blood smears 48 h after treatment
Experimental: Test method for the determination of the activity against Plasmodium berghei in vivo
The preparations are tested on mice infected with malaria pathogens (Plasmodium berghei). Male albino mice (IBM:MORO(SPF), FUELLINSDORF) weighing about 25 g are used as the test animals. They are kept in climatized rooms at 21-22° C. in groups of 5 animals per cage. They receive ad libitum a diet feed with a low PABA content (NAFAG FUTTER " No. 9009 PAB-45, PABA content 45 mg/kg) and drinking water. On the first day of the test (D0) the test animals are infected with Plasmodium berghei (strain ANKA). For this there is used heparinized blood of a donor mouse with about 30% parasitemia, which is diluted with physiological saline such that it contains 10^8 parasitized erythrocytes per ml. 0.2 ml of this suspension is injected intravenously (i.v.) into the mice to be treated and into the control mice.
The substances to be tested are dissolved or suspended in distilled water or in a mixture of 7% Tween 80, 3% alcohol (96%) and water. Usually, 0.25 ml of this solution or suspension is administered once subcutaneously and perorally to groups of 5 test animals. Treatment is effected 24 hours after the infection. 10 control animals are treated in the same manner with solvent or suspension medium per test.
All substances are tested in a first test in a single dosage of 10 mg/kg. Only those substances which in this test (10 mg/kg) have shown a parasitaemia reduction of 90% are used for the titration. Suitable dilutions of the test substance can be used to obtain an accurate titration of the activity.
48 hours after the treatment (D+3) blood smears are prepared from all animals using blood from tail veins and are stained with giemsa. […] The difference in the average values of the infection rates of control group (100%) and treated groups is calculated and expressed as a percentage reduction (GI%). The ED50 or ED90 is determined mathematically by means of the JMP programme (nonlinear fit). The ED50 (ED90) in mg/kg is that dose which after single administration reduces the average erythrocyte infection rate by 50% (90%) in comparison to the control group.

[2] = po, single peroral dose of 10 mg/kg, read-out: Growth inhibition in % after po administration (GI%, percentage reduction of the parasitemia)
[3] = sc, single subcutaneous dose of 10 mg/kg, read-out: Growth inhibition in % after sc administration (GI%, percentage reduction of the parasitemia)

| Structure (SMILES) | IC50 [1] | IC50 (Plasmodium falciparum K1) | Resistance index (Plasmodium falciparum K1) | inhibition in vivo at 10 mg/kg (Plasmodium berghei; [2]) | inhibition in vivo at 10 mg/kg (Plasmodium berghei; [3]) |
| --- | --- | --- | --- | --- | --- |
| Cl.Cl.Clc1ccc(CN[C@@H]2CC[C@H](Nc3ccnc4cc(Cl)ccc34)C2)cc1 (relative stereo) [Example 68, cis-N1-(7-Chloro-quinolin-4-yl)-N3-(4-chloro-benzyl)-cyclopentane-1,3-diamine dihydrochloride] | 0.0059 mg/L | 0.0146 mg/L | 2.5 | 99.9% | 99.6% |
| CCN(CC)Cc1cc(Nc2ccnc3cc(Cl)ccc23)ccc1O [Amodiaquine, reference compound] | 0.0025 mg/L (≈ 7.03 nM) | 0.0035 mg/L (≈ 9.84 nM) | – | – | – |
| C[C@H](CNc1ccnc2cc(Cl)ccc12)NCc1ccc(N(C)C)cc1.Cl.Cl.Cl [Example 1, (2R)-N1-(7-Chloro-quinolin-4-yl)-N2-(4-dimethylamino-benzyl)-propane-1,2-diamine trihydrochloride] | 0.0126 mg/L | 0.0175 mg/L | 1.4 | – | – |
| C[C@@H](CNCc1ccc(N(C)C)cc1)Nc1ccnc2cc(Cl)ccc12.Cl.Cl.Cl [Example 2, (2S)-N2-(7-Chloro-quinolin-4-yl)-N1-(4-dimethylamino-benzyl)-propane-1,2-diamine trihydrochloride] | 0.0071 mg/L | 0.0148 mg/L | 2.1 | – | – |
| CC(C)(CNc1ccnc2cc(Cl)ccc12)NCc1cccc(Cl)c1Cl.Cl.Cl [Example 26, N1-(7-Chloro-quinolin-4-yl)-N2-(2,3-dichloro-benzyl)-2-methyl-propane-1,2-diamine dihydrochloride] | 0.0263 mg/L | 0.0373 mg/L | 1.4 | – | – |
| CC(C)(CNc1ccnc2cc(Cl)ccc12)NCc1cccc(O)c1.Cl.Cl [Example 32, N1-(7-Chloro-quinolin-4-yl)-N2-(3-hydroxy-benzyl)-2-methyl-propane-1,2-diamine dihydrochloride] | 0.0076 mg/L | 0.0147 mg/L | 1.9 | – | – |
| COc1ccccc1CNC(C)(C)CNc1ccnc2cc(Cl)ccc12.Cl.Cl [Example 34, N1-(7-Chloro-quinolin-4-yl)-N2-(2-methoxy-benzyl)-2-methyl-propane-1,2-diamine dihydrochloride] | 0.0072 mg/L | 0.015 mg/L | 2.1 | – | – |
| COc1ccc(CNC(C)(C)CNc2ccnc3cc(Cl)ccc23)cc1.Cl.Cl [Example 35, N1-(7-Chloro-quinolin-4-yl)-N2-(4-methoxy-benzyl)-2-methyl-propane-1,2-diamine dihydrochloride] | 0.0064 mg/L | 0.0133 mg/L | 2.1 | – | – |
| COc1cccc(CNC(C)(C)CNc2ccnc3cc(Cl)ccc23)c1OC.Cl.Cl [Example 36, N1-(7-Chloro-quinolin-4-yl)-N2-(2,3-dimethoxy-benzyl)-2-methyl-propane-1,2-diamine dihydrochloride] | 0.0162 mg/L | 0.0207 mg/L | 1.3 | – | – |
| COc1ccc(CNC(C)(C)CNc2ccnc3cc(Cl)ccc23)c(OC)c1.Cl.Cl [Example 37, N1-(7-Chloro-quinolin-4-yl)-N2-(2,4-dimethoxy-benzyl)-2-methyl-propane-1,2-diamine dihydrochloride] | 0.011 mg/L | 0.011 mg/L | 1.0 | – | – |
| COc1ccc(OC)c(CNC(C)(C)CNc2ccnc3cc(Cl)ccc23)c1.Cl.Cl [Example 38, N1-(7-Chloro-quinolin-4-yl)-N2-(2,5-dimethoxy-benzyl)-2-methyl-propane-1,2-diamine dihydrochloride] | 0.0101 mg/L | 0.0151 mg/L | 1.5 | – | – |
| COc1ccc(CNC(C)(C)CNc2ccnc3cc(Cl)ccc23)cc1OC.Cl.Cl [Example 39, N1-(7-Chloro-quinolin-4-yl)-N2-(3,4-dimethoxy-benzyl)-2-methyl-propane-1,2-diamine dihydrochloride] | 0.0078 mg/L | 0.0103 mg/L | 1.3 | – | – |
| COc1cc(CNC(C)(C)CNc2ccnc3cc(Cl)ccc23)cc(OC)c1OC.Cl.Cl [Example 41, N1-(7-Chloro-quinolin-4-yl)-N2-(3,4,5-trimethoxy-benzyl)-2-methyl-propane-1,2-diamine dihydrochloride] | 0.0135 mg/L | 0.0187 mg/L | 1.4 | – | – |
| CC(C)(CNc1ccnc2cc(Cl)ccc12)NCc1ccc2c(c1)OCO2.Cl.Cl [Example 42, N1-(7-Chloro-quinolin-4-yl)-N2-benzo[1,3]dioxol-5-ylmethyl-2-methyl-propane-1,2-diamine dihydrochloride] | 0.0087 mg/L | 0.0126 mg/L | 1.4 | – | – |
| CC(C)(CNc1ccnc2cc(Cl)ccc12)NCc1cccc2ccccc12.Cl.Cl [Example 52, N1-(7-Chloro-quinolin-4-yl)-N2-(naphthalen-1-yl-methyl)-2-methyl-propane-1,2-diamine dihydrochloride] | 0.0346 mg/L | 0.0556 mg/L | 1.6 | – | – |
| CC(C)(CNc1ccnc2cc(Cl)ccc12)NCc1ccc2ccccc2c1.Cl.Cl [Example 53, N1-(7-Chloro-quinolin-4-yl)-N2-(naphthalen-2-yl-methyl)-2-methyl-propane-1,2-diamine dihydrochloride] | 0.0159 mg/L | 0.0149 mg/L | 0.9 | – | – |
| CC(C)(CNc1ccnc2cc(Cl)ccc12)NCc1ccco1.Cl.Cl [Example 54, N1-(7-Chloro-quinolin-4-yl)-N2-(furan-2-yl-methyl)-2-methyl-propane-1,2-diamine dihydrochloride] | 0.0193 mg/L | 0.029 mg/L | 1.5 | – | – |
| CC(C)(CNc1ccnc2cc(Cl)ccc12)NCc1ccoc1.Cl.Cl [Example 55, N1-(7-Chloro-quinolin-4-yl)-N2-(furan-3-yl-methyl)-2-methyl-propane-1,2-diamine dihydrochloride] | 0.0078 mg/L | 0.0145 mg/L | 1.9 | – | – |
| CC(C)(CNc1ccnc2cc(Cl)ccc12)NCc1ccc(C(F)(F)F)cc1C(F)(F)F.Cl.Cl [Example 59, N1-(7-Chloro-quinolin-4-yl)-N2-(2,4-bis-trifluoromethyl-benzyl)-2-methyl-propane-1,2-diamine dihydrochloride] | 0.166 mg/L | 0.186 mg/L | 1.1 | – | – |
| COc1cc(CN[C@H]2CCCC[C@@H]2Nc2ccnc3cc(Cl)ccc23)cc(OC)c1OC.Cl.Cl [Example 65, (1S,2S)-N1-(7-Chloro-quinolin-4-yl)-N2-(3,4,5-trimethoxy-benzyl)-cyclohexane-1,2-diamine dihydrochloride] | 0.0099 mg/L | 0.0253 mg/L | 2.6 | – | – |
| Oc1ccccc1CN[C@H]1CC[C@@H](Nc2ccnc3cc(Cl)ccc23)CC1 [Example 78, cis-N1-(7-Chloro-quinolin-4-yl)-N4-(2-hydroxy-benzyl)-cyclohexane-1,4-diamine dihydrochloride] | – | – | – | 99.9% | 100% |
